4 molecules from US11485742B2, “2-azaspiro[3.4]octane derivatives as M4 agonists” (NOVARTIS AG, priority 2019, dated 2022) can be followed below.

A value given as a limit tells only on which side of the number the result lay.

Assay [1] addresses T1, human cloned CHRM5 receptor (Homo sapiens, UniProt P08912).
T1 construct: expressed in transfected cells; host or cells: CHO (M5_CHO)
T1 sequence (P08912 1-532): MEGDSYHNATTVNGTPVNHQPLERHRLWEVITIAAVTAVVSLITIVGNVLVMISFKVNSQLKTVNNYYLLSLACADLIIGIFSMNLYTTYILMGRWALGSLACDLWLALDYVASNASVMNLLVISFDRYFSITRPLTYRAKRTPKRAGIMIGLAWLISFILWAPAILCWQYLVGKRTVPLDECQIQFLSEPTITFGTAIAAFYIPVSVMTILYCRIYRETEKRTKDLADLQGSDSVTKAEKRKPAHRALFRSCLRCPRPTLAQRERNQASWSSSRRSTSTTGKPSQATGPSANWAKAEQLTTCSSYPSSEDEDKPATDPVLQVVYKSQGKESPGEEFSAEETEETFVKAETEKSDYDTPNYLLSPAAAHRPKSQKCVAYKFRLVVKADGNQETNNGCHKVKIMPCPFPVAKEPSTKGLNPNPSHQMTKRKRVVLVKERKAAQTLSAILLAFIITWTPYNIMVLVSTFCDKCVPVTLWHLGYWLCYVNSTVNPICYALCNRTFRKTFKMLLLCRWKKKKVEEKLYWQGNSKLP
Briefly: CHRM5 Ca++ Flux Assay (M5_CHO cells, agonist mode). It counts as cell-based. The following applies: for EC50: agonist mode, geometric mean if tested more than once, read-out: M5 FDSS EC50; for Emax: read-out: M5 FDSS PA %. In outline:
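Agonist-mode calcium mobilisation: compounds, 11 concentrations in triplicate, applied to stable M3_CHO or M5_CHO cells loaded with Ca++ dye, fluorescence followed 3 min. Efficacy expressed against carbachol EC100; EC curves by four-parameter nonlinear regression, geometric mean across independent runs.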

Assay [2] has as its target T2, Cloned human M1 receptor (CHRM1) (Homo sapiens, UniProt P11229).
T2 construct: expressed in transfected cells; host or cells: HEK293
T2 sequence (P11229 1-460): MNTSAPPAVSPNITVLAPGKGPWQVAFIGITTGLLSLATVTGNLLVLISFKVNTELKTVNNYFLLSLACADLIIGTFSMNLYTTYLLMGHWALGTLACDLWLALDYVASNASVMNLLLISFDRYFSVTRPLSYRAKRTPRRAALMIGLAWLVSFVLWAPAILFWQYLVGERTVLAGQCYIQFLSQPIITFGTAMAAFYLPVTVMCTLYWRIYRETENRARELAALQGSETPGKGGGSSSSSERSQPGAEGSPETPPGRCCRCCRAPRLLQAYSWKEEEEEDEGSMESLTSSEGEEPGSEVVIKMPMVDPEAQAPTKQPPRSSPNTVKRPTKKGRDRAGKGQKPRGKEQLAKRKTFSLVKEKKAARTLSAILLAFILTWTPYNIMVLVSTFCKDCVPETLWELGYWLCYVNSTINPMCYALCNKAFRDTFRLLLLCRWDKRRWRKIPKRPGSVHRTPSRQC
Briefly: CHRM1 Ca++ Flux Assay (HEK293 M1 cells, agonist mode). It is filed as cell-based. The following applies: for EC50: geometric mean if tested more than once, read-out: M1 FDSS EC50; for Emax: read-out: M1 FDSS PA %. The method, boiled down:
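In agonist mode, compound-induced intracellular Ca++ mobilization was recorded for 3 min by fluorescent imager. The cells were HEK293 stably expressing cloned human CHRM1, in Ca/Mg-free HBSS with 20 mM HEPES. Triplicate 11-point dose-responses were fitted by four-parameter regression and normalized to the carbachol EC100 response.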

The mark [3] stands for this setting: Percent Activity (PA) measured to EC100 of Carbachol.

As for `CC1(C)C[C@@H](Oc2ccc(F)cc2C2CCN([C@@H]3COC4(C3)CN(c3nnco3)C4)CC2)CO1` (single isomer, unassigned) [Example 2N, (S)-7-(4-(2-(((R)-5,5-dimethyltetrahydrofuran-3-yl)oxy)-5-fluorophenyl)piperidin-1-yl)-2-(1,3,4-oxadiazol-2-yl)-5-oxa-2-azaspiro[3.4]octane or (S)-7-(4-(2-(((S)-5,5-dimethyltetrahydrofuran-3-yl)oxy)-5-fluorophenyl)piperidin-1-yl)-2-(1,3,4-oxadiazol-2-yl)-5-oxa-2-azaspiro[3.4]octane], the “M5 FDSS PA %” value in assay [1] (setting [3]) came out at 0%. Further, the EC50 (commonly the concentration at which the effect is half-maximal) is over 25000 nM in assay [1] and 5090 nM in assay [2]. Besides, the “M1 FDSS PA %” value in assay [2] (Percent Activity (PA)) was found to be 71%.

In the case of `CC(C)(C#N)COc1ccc(F)cc1C1CCN([C@@H]2COC3(C2)CN(c2nnco2)C3)CC1` [Example 1E, (S)-3-(2-(1-(2-(1,3,4-oxadiazol-2-yl)-5-oxa-2-azaspiro[3.4]octan-7-yl)piperidin-4-yl)-4-fluorophenoxy)-2,2-dimethylpropanenitrile], the figures for the Emax in assay [1] (setting [3]) and in assay [2] (Percent Activity (PA)) were 0% and 84%, respectively. Moreover, the EC50 is over 25000 nM in assay [1] and 563 nM in assay [2].

`Fc1ccc(OC[C@@H]2CCOC2)c(C2CCN([C@@H]3COC4(C3)CN(c3nncs3)C4)CC2)c1` [Example 5I, (S)-7-(4-(5-fluoro-2-(((R)-tetrahydrofuran-3-yl)methoxy)phenyl)piperidin-1-yl)-2-(1,3,4-thiadiazol-2-yl)-5-oxa-2-azaspiro[3.4]octane]: the Emax was found to be 0% in assay [1] (setting [3]) and 69% in assay [2] (Percent Activity (PA)). Moreover, the half-maximal effective concentration (EC50) in assay [1] is over 25000 nM; in assay [2] it was 775 nM.

Take `COc1ccc(Cl)cc1C1CCN([C@@H]2COC3(C2)CN(c2ncns2)C3)CC1` [Example 5A, (S)-7-(4-(5-chloro-2-methoxyphenyl)piperidin-1-yl)-2-(1,2,4-thiadiazol-5-yl)-5-oxa-2-azaspiro[3.4]octane]: the results for the Emax in assay [1] (setting [3]) and in assay [2] (Percent Activity (PA)) were 0% and 70%, respectively. The EC50 in assay [1] was over 25000 nM; in assay [2], 630 nM.
